Measurements reported in patent publication US12150939B2, “Therapeutic drug for ectopic ossification having mechanism to inhibit PAR1” (NATIONAL UNIVERSITY CORPORATION KUMAMOTO UNIVERSITY, priority 2015, dated 2024).

Experiments:
[1] = tested on: FOP-derived fibroblasts; experiment: Differentiation of FOP-derived fibroblasts to osteoblasts in the absence of serum when using each inhibitor (ALP immunostaining and ALP activity); assay type: cell-based, human; conditions: BMP6 and TFLLR stimulation
[2] = tested on: NOG mice; experiment: Ectopic ossification in teratomas from FOP patient iPS cells implanted into testicle of NOG mice, PAR1 inhibitor (CT); assay type: in vivo; conditions: 0.2 mg/kg/day intraperitoneally once daily from 9 weeks after implantation
[3] = tested on: FOP-derived fibroblasts; experiment: PAR1 mRNA expression by BMP6 stimulation in the presence of serum (qPCR), FOP-derived fibroblasts; assay type: cell-based, human; conditions: BMP6 50 ng/mL, over time, compared to normal subject-derived fibroblasts
Procedure: (§1) • (1) Fibroblasts were created from skin biopsy explants from FOP patients and normal subjects under informed consent by a protocol approved by Ethics committee. • (2) Skin samples from patients and from normal subjects were finely cut and cultured in DMEM medium supplemented with 10% fetal bovine serum (FBS). • (3) After emergence of fibroblasts was observed, the fibroblasts were grown to introduce a reprogramming gene. The grown fibroblasts were then put in a solution for freezing containing 10% DMSO+90% FBS and cryopreserved. <2. […] Intensity of bands was evaluated by Image J software (NIH, USA). • (4) In immunoprecipitation, 293T cells in which Smads were overexpressed, and KDM6B or LSD1 were lysed in RIPA buffer (50 mM Tris-HCl, pH 7.4, 1 mM EDTA, 150 mM NaCl, 1% NP-40, protease/phosphatase inhibitor cocktail). […]

[4] = tested on: normal subject-derived fibroblasts; experiment: PAR1 mRNA expression by BMP6 stimulation in the presence of serum (qPCR), normal subject-derived fibroblasts; assay type: cell-based, human; conditions: BMP6 50 ng/mL, over time
Procedure: as §1

[5] = tested on: FOP-derived fibroblasts; experiment: Differentiation of FOP-derived fibroblasts to osteoblasts by BMP6 / TFLLR stimulation in the absence of serum (ALP immunostaining and ALP activity); assay type: cell-based, human; conditions: single stimulus
Procedure: as §1

Molecule: CCOC(=O)N[C@@H]1CC[C@@H]2[C@@H](C1)C[C@H]1C(=O)O[C@H](C)[C@H]1[C@H]2/C=C/c1ccc(-c2cccc(F)c2)cn1 [Vorapaxar, ethyl [(1R,3aR,4aR,6R,8aR,9S,9aS)-9-{(1E)-2-[5-(3-fluorophenyl)pyridin-2-yl]ethen-1-yl}-1-methyl-3-oxododecahydronaphtho[2,3-c]furan-6-yl]carbamate]
- ALP activity ([1]; 1 μM): largely decreased
- ALP expression (immunostaining) ([1]; 1 μM): largely decreased
- bone volume in the teratomas relative to vehicle [2]: about one third
- teratoma volume calculated from CT images versus vehicle [2]: a significant difference in the teratoma volume was not observed
- bones found in the teratomas (CT images) versus vehicle ([2]; after 2 weeks of administration): notably less

Molecule: CC(C)c1ccc(Cn2ccc3c4c(N)nc(NC5CC5)nc4ccc32)cc1 [SCH79797, N3-cyclopropyl-7-[[4-(1-methylethyl)phenyl]methyl]-7H-pyrrolo[3,2-f]quinazoline-1,3-diamine]
- ALP activity ([1]; 200 nM): largely decreased
- ALP expression (immunostaining) ([1]; 200 nM): largely decreased

B1: BMP6: bone morphogenetic protein used as osteogenic stimulus (protein, UniProt P22004 375-513, looked up)
Bone morphogenetic protein 6: SASSRRRQQSRNRSTQSQDVARVSSASDYNSSELKTACRKHELYVSFQDLGWQDWIIAPKGYAANYCDGECSFPLNAHMNATNHAIVQTLVHLMNPEYVPKPCCAPTKLNAISVLYFDDNSNVILKKYRNMVVRACGCH
- mRNA expression level of PAR1 [3]: remarkable increase
- mRNA expression level of PAR1 [4]: significantly increased
- ALP activity compared to control [5]: significantly increased
- ALP expression (immunostaining) [5]: observed
